This is an account of results in the NIST ThermoML archive (doi:10.1016/j.fluid.2010.12.003).

The nature of the series: xn = mol fraction of the nth substance listed. The conditions noted are these: 101 kPa, Fluid (supercritical or subcritical phases), Taylor dispersion method, x1 = 0.

As to `COc1cc(-c2[o+]c3cc(O)cc(O[C@@H]4O[C@H](CO)[C@@H](O)[C@H](O)[C@H]4O)c3cc2O[C@@H]2O[C@H](CO)[C@@H](O)[C@H](O)[C@H]2O)cc(OC)c1O.[Cl-]` [malvidin-3,5-diglucoside chloride] + O, the binary diffusion coefficient amounted to 2.16e-10 m2/s (298 K); 2.71e-10 m2/s (312 K); 3.6e-10 m2/s (332 K); 4.41e-10 m2/s (352 K); 5.15e-10 m2/s (372 K); 5.3e-10 m2/s (392 K). For the same molecule, for the setting “413 K”, the binary diffusion coefficient is 5.79e-10 m2/s.
As for `O=c1c(O[C@@H]2O[C@H]([C@H](O)CO)[C@H](O)[C@H]2O)c(-c2ccc(O)c(O)c2)oc2cc(O)cc(O)c12` [isoquercitrin] + O, the binary diffusion coefficient is, setting by setting: (298 K) 1.66e-10 m2/s; (312 K) 2.19e-10 m2/s; (332 K) 2.77e-10 m2/s; (352 K) 3.07e-10 m2/s; (372 K) 3.51e-10 m2/s.
As for `O=C(O)c1cc(O)c(O)c(O)c1` [3,4,5-trihydroxybenzoic acid] + O, the binary diffusion coefficient came out at 2.5e-10 m2/s (298 K), 2.87e-10 m2/s (312 K), 3.3e-10 m2/s (332 K) and 4.07e-10 m2/s (352 K).
Take `COc1cc(-c2[o+]c3cc(O)cc(O)c3cc2O[C@@H]2O[C@H](CO)[C@@H](O)[C@H](O)[C@H]2O)ccc1O.[Cl-]` + O: the binary diffusion coefficient runs as follows: (298 K) 2.19e-10 m2/s; (312 K) 2.67e-10 m2/s; (332 K) 3.65e-10 m2/s; (352 K) 4.52e-10 m2/s; (372 K) 5.39e-10 m2/s; (392 K) 6.18e-10 m2/s. Moreover, under “413 K”, the binary diffusion coefficient was determined as 6.49e-10 m2/s.
Take `Oc1cc(O)c2c(c1)O[C@H](c1ccc(O)c(O)c1)[C@@H](O)C2` [(+)-catechin] + O: the binary diffusion coefficient reads like this: (298 K) 2.33e-10 m2/s; (312 K) 3.07e-10 m2/s; (332 K) 3.76e-10 m2/s; (352 K) 4.05e-10 m2/s; (372 K) 4.25e-10 m2/s; (392 K) 4.78e-10 m2/s. The binary diffusion coefficient (413 K) was determined as 5.3e-10 m2/s.
`O=C(O)c1ccc(O)c(O)c1` [3,4-dihydroxybenzoic acid] + O: the binary diffusion coefficient runs as follows: (298 K) 2.46e-10 m2/s; (312 K) 3.2e-10 m2/s; (332 K) 3.84e-10 m2/s; (352 K) 4.15e-10 m2/s; (372 K) 5.12e-10 m2/s; (392 K) 5.27e-10 m2/s.
As for `Oc1cc(O)c2c(c1)O[C@H](c1ccc(O)c(O)c1)[C@H](O)C2` + O, the binary diffusion coefficient was 1.97e-11 m2/s (298 K); 2.66e-11 m2/s (312 K); 3.38e-11 m2/s (332 K); 3.89e-11 m2/s (352 K); 4.06e-11 m2/s (372 K); 5.19e-11 m2/s (392 K).
